Read-outs that look alike come from different tables or passages of the source.
Legend:
Plasma stability, human = format: in vitro ADME; conditions: 5 µM, 37 °C, up to 4 h
Experimental: (§1) The plasma stability was estimated by preparing 5 µM of eurycomanone in 600 µL plasma in triplicates. The plasma stability of eurycomanone was determined in five types of plasma (mice, rat, dog, monkey, and human). The reaction was kept at 37 °C and ACN (100 µL) was added at timepoints 0, 30 min, and 1, 2, and 4 h to the reaction mixture (100 µL). The supernatant (10,000 rpm, 10 min, 4 °C) was collected and analysed by LC-MS/MS. The standards (propantheline bromide and enalapril) were analysed in triplicates.

plasma protein = test: Plasma protein binding (rapid equilibrium dialysis), human; format: in vitro ADME; conditions: range over all species' plasma apart from dog (rat, monkey, mice, human)
Experimental: (§2) The ability of eurycomanone to bind plasma protein was analysed in five types of plasma (mice, rat, dog, monkey, and human). Each type of plasma was spiked with eurycomanone (1 mM) to make the 10 µM test concentration of eurycomanone in the plasma. Equilibrium dialysis buffer (500 µL) at pH 7.4 was added to the right chamber in rapid equilibrium dialysis (RED), while the spiked plasma (300 µL) was added to the left chamber. The Teflon base plate was covered with aluminium foil and left on the shaking incubator at 37 °C for 4 h. The matrix was balanced by mixing 100 µL of the equilibrium buffer with the spiked plasma from the left chamber in RED before adding the stop solution (350 µL) to precipitate out the protein. The supernatant (10,000 rpm, 10 min, 4 °C) was collected and analysed using LC-MS/MS. The standards (propranolol, warfarin, and acebutalol) were analysed in duplicates.

[1] = as above; format: in vitro ADME; conditions: pH 7.4; human plasma, 10 µM, 37 °C, 4 h; read-out: percentage bound to plasma protein (converted)
Experimental: as §2

[2] = set-up: method as in PMID 27572280; conditions: cited from earlier work
[3] = test system: HepG2 cell-induced tumours; set-up: method as in earlier work; conditions: 17 mg/kg orally, nude mice with HepG2 cell-induced tumours; cited from earlier work
Plasma stability, rat = format: in vitro ADME; conditions: 5 µM, 37 °C, up to 4 h
Experimental: as §1

[4] = Rat liver hepatocyte stability; format: in vitro ADME; conditions: rat liver hepatocytes
[5] = Pharmacokinetics of eurycomanone in mice (intravenous and oral); format: in vivo, CD-1 mice; conditions: plasma; for AUC(0-t): read-out: AUC0–8
Excerpt: The ethical approval for the animal experiments conducted in India was granted from the Animal Ethics Committee, Aurigene Discovery Technologies, Bangalore, India. Eight male Wistar rats (12 weeks old; weighing 250–350 g) and eight Caeserean Derived-1 (CD-1) mice (weighing 20–30 g) were obtained from the Animal House, Aurigene Discovery Technologies, Bangalore, India. They were supplied with standard rodent diets and drinking water ad libitum. Each rodent species (i.e., rats and mice) were divided into two groups. One group (n = 3 for each rodent species) was administered with eurycomanone via the intravenous route (IV) and another group (n = 3 for each rodent species) via the oral route (PO) using oral gavage intubation needle. Two animals of each of the species were used as a control and they received reverse osmosis water. All rats underwent jugular vein cannulation surgery 72 h prior to the administration of the eurycomanone.
Eurycomanone (rats: 1.5 mg/mL for IV route and 3.0 mg/mL for PO route; mice: 0.5 mg/mL for IV route and 1.0 mg/mL for PO route) samples were prepared fresh on the day of dosing. For the IV administration, eurycomanone was dissolved in 3% NMP and 97% of 10% HPCD in saline. For the oral administration, eurycomanone was dissolved in 3% NMP and 97% of 30% HPCD in saline. Both samples were sonicated before use. The SWE (5 mg/mL for IV route, 10 mg/mL for PO route) was prepared fresh on the day of dosing. For the IV administration, the SWE was dissolved in reverse osmosis water and filtered (0.2 µm pore size) before administration. The SWE for the PO administration was prepared using the same method, except without filtering. The animals were not fasted and doses given were based on the body weights prior to dosing.
Blood specimens (approximately 0.30–0.40 mL via the jugular vein cannula for rats and 0.10–0.20 mL via submanibular bleeding for mice) were collected at time points 0.083 (IV group only), 0.25, 0.5, 1, 2, 4, 6, and 8 h post-dosing with eurycomanone. At the experiment end point, the animals were euthanized by excess isoflurane inhalation followed by cervical dislocation. In the experiment using SWE, the rats were placed in metabolic cages (Techniplast, West Chester, PA, USA) and blood (approximately 0.30–0.40 mL collected via the jugular vein cannula), urine, and faeces specimens were collected at the same time points with the above plus one additional time point of 24 h. Kidney and liver specimens were collected at necropsy, where the rats were euthanized by CO2 inhalation followed by cervical dislocation. All blood specimens were centrifuged (10,000 rpm, 10 min) to obtain plasma and were stored at −80 °C until processed. Urine and faeces specimens were collected into plastic containers on wet ice while the organ specimens were snap-frozen in liquid nitrogen and maintained at −80 °C until processed.
Plasma specimens (100 µL), collected from the eurycomanone experiment were added with the internal standard solution (10 µL). Plasma proteins were precipitated with ACN (300 µL), vortex-mixed for 5 min, and centrifuged at 4000 rpm for 7 min. The supernatant was collected and evaporated using a nitrogen evaporator for 20 min at 50 °C. Thereafter, they were reconstituted with the mobile phase (500 µL) and transferred into LC-MS vials for analysis.
Eurycomanone detection in the pure eurycomanone experiments was done via the LC-MS/MS system consisting of an Agilent 1260 Infinity HPLC system and an AB SCIEX API 4000™ Triple-Quadrupole mass spectrometer equipped with TurboIonSpray® probe and atmospheric pressure chemical ionization (APCI) (AB Sciex LLC, Framingham, MA, USA). Electrospray ionization (ESI) was performed in positive ion mode. The analytical column was Agilent Zorbax Eclipse-C18 (4.6 mm I.D. × 150 mm, 3.5 µm). The mobile phase consisted of 0.1% formic acid (solvent A) and 90% ACN with 0.1% formic acid (solvent B). […]

C=C1[C@@H](O)[C@]2(O)OC[C@]34[C@H]2[C@@]2(C)[C@H](O)C(=O)C=C(C)[C@@H]2C[C@H]3OC(=O)[C@H](O)[C@@]14O [Eurycomanone]
plasma stability (Plasma stability, human): highly stable | fraction of unbound eurycomanone (plasma protein): 61.1–78.4% | fraction unbound at 4 h, 10 µM [1]: 0.611 | Cmax [2]: 40.43 ng/mL | tumour suppression [3]: tumour suppression ability was demonstrated | plasma stability (Plasma stability, rat): highly stable | Half-life (t1/2) [4]: >1.5 h | half-life [4]: > 1.5 h | hepatocyte CLint ([4]; read-out: Intrinsic clearance (Clint)): 0.67 µL/min/1e6 cells | Observed Cmax ([5]; 10 mg/kg oral, 10 mg/kg): 334.7 ng/mL | AUC(0-t) ([5]; CD-1, mouse, 1 mg/kg intravenous): 221 ng·h/mL | AUC(0-t) ([5]; CD-1, mouse, 10 mg/kg oral): 1210 ng·h/mL | half-life ([5]; CD-1, mouse, 1 mg/kg intravenous, read-out: Half-life (t1/2) (converted)): 0.3 h | clearance ([5]; CD-1, mouse, 1 mg/kg intravenous, read-out: Plasma Clearance (CL) (converted)): 64.2 mL/min/kg | Vd ([5]; CD-1, mouse, 1 mg/kg intravenous, read-out: Volume of Distribution at Steady State (Vss)): 1.51 L/kg | bioavailability ([5]; CD-1, mouse, 10 mg/kg oral vs 1 mg/kg intravenous, read-out: Bioavailability (F)): 54.9% | Tmax ([5]; CD-1, mouse, 10 mg/kg oral, read-out: Observed Tmax): 2 h | Cmax ([5]; CD-1, mouse, po, 10 mg/kg, 10 mg/kg oral, read-out: Observed Cmax): 335 ng/mL
